Reference: article PMC3917480 (Bioorganic & medicinal chemistry, 2013)
Each block holds one compound with its values, some of them ahead of it. Where a SMILES comes first, the peptide text is derived from it. The star is where a group is joined. X3 = O=C(c1ccc(N2CCNCC2)cn1)*; X5 = CC(C)COc1cccc(CC(=O)*)c1; X6 = CCCOc1cccc(CC(=O)*)c1; X2 = CCOc1cccc(CC(=O)*)c1

Columns and labels:
[1] = biological target: CDK2/cyclin A (Homo sapiens, UniProt P20248); assay: CDK2A2 fluorescence polarization competitive binding assay; settings: FLIP context
[2] = biological target: CDK4/cyclin D1 (Homo sapiens, UniProt P24385); assay: CDK4D1 fluorescence polarization competitive binding assay; settings: for binding affinity (in words), CDK4D1: FLIP context
Chain of CDK4/cyclin D1 (P24385 whole entry): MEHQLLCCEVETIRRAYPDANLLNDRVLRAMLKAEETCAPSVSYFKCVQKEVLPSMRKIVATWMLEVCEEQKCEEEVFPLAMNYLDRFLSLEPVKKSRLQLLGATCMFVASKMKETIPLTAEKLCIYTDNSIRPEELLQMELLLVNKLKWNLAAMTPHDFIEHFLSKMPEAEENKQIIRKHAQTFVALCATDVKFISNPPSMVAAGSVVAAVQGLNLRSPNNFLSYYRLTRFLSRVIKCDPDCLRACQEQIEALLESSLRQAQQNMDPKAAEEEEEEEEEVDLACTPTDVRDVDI
Chain of CDK4/cyclin D1 (P11802 whole entry partner): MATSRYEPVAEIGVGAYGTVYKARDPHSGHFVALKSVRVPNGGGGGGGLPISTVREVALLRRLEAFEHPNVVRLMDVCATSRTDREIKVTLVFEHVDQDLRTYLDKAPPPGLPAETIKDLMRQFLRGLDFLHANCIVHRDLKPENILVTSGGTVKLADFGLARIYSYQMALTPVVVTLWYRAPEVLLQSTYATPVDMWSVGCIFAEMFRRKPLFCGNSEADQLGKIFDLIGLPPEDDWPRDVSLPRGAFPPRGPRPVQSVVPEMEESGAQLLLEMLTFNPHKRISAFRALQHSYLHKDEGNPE

Compound: CCCOc1cccc(CC(=O)N[C@@H](CCCNC(=N)N)C(=O)N[C@@H](CC(C)C)C(=O)N[C@H](C(=O)N[C@@H](Cc2ccccc2)C(N)=O)[C@@H](C)CC)c1 [compound 5853] (X6-RLIF-NH2)
binding affinity (in words), CDK2A2 [1]: None of these analogs in the FLIP context possessed appreciable binding affinity | binding affinity (in words), CDK4D1 [2]: None of these analogs in the FLIP context possessed appreciable binding affinity

Compound: CCOc1cccc(CC(=O)N[C@@H](CCCNC(=N)N)C(=O)N[C@@H](CC(C)C)C(=O)N[C@H](C(=O)N[C@@H](Cc2ccccc2)C(N)=O)[C@@H](C)CC)c1 [compound 5854] (X2-RLIF-NH2)
binding affinity (in words), CDK2A2 [1]: None of these analogs in the FLIP context possessed appreciable binding affinity | binding affinity (in words), CDK4D1 [2]: None of these analogs in the FLIP context possessed appreciable binding affinity

Compound: CC[C@H](C)[C@H](NC(=O)[C@H](CC(C)C)NC(=O)[C@H](CCCNC(=N)N)NC(=O)Cc1cccc(OCC(C)C)c1)C(=O)N[C@@H](Cc1ccccc1)C(N)=O [compound 5855] (X5-RLIF-NH2)
binding affinity (in words), CDK2A2 [1]: None of these analogs in the FLIP context possessed appreciable binding affinity | binding affinity (in words), CDK4D1 [2]: None of these analogs in the FLIP context possessed appreciable binding affinity

increased potency relative to 525 in CDK4D1 ([2]; relative to 525): 2 fold
Compound: CC[C@H](C)[C@H](NC(=O)[C@H](CC(C)C)NC(=O)[C@H](CCCNC(=N)N)NC(=O)c1ccc(N2CCNCC2)cn1)C(=O)N[C@@H](Cc1ccccc1)C(N)=O [compound 5856] (X3-RLIF-NH2)
